Laboratory results as given in patent US20180311217A1, “METHODS OF TREATMENT AND COMPOSITIONS WITH XANTHINE OXIDASE INHIBITORS” (Takeda Pharmaceuticals U.S.A., Inc., priority 2013, published 2018).
Marks after values point to notes of the source that are not given here.

Experiments:
[1] = tested on: hyperuricemic gout subjects with moderate to severe renal impairment; assay: Example 1 randomized double-blind 12 month study: serum urate (sUA); assay type: in vivo, human
Source text: Randomization was stratified at baseline using 3 strata: subjects taking an angiotensin receptor blocker (ARB), subjects taking an angiotensin converting enzyme inhibitors (ACEi), or subjects not taking an ARB or an ACEi. […] Serum samples for the analysis of sUA were collected as part of the standard chemistry panel at the time points stipulated in Schedule of Study Procedures (Table 1). All samples were collected in accordance with standard laboratory procedures. Serum urate concentrations were determined using the enzymatic method as performed by the Central Laboratory and were blinded to the Sponsor and investigative site beginning at Day 1 through the Month 12/ET visits. Missing data in all efficacy analyses was imputed with the last available postbaseline observation carrying forward (LOCF). A subject was included in the analysis of a specific efficacy variable only when there was both a baseline value and at least 1 value during the double-blind treatment period. […] The percentage of subjects with sUA<6 mg/dL at Month 12 was summarized by treatment group, and the treatment groups were compared by a CMH test with prior use of an ARB or ACEi as a stratification variable. In addition, change from baseline and percent change from Baseline in sUA were summarized by visit and by treatment.

[2] = tested on: hyperuricemic gout subjects with moderate to severe renal impairment; assay: Example 1 study: subjects experiencing gout flares; assay type: in vivo, human
Experimental: All subjects received colchicine 0.6 mg every other day (QOD) from the initial screening visit through the Month 6 visit only. Alternatively, if colchicine was not tolerated by the subject, prednisone may have been provided at the investigator's discretion in accordance with the stated guidelines listed under Prohibited Concomitant Medications.
All subjects were instructed to take colchicine 0.6 mg QOD for prophylaxis. Colchicine began at the Screening Day −21 visit for all subjects. Subjects received colchicine 0.6 mg QOD through the Month 6 visit.
Subjects were assessed for gout flares from the time the ICF was signed and throughout the duration of the study. Subjects were instructed to call the Investigator as soon as they thought they were having a gout flare. The Gout Flare Assessment Worksheet was completed by the site personnel (ie, study coordinator, study nurse, or the investigator).
Subjects were instructed to report the following information: the onset and end date of the flare, the kind of prophylaxis medication they were taking at the time of the event, whether or not the attack required medication (including type) and dates of treatment, the location of the flare, signs and symptoms regarding the flare including the severity, subjects' pain intensity (pain in rest), and the assessment of current gout flare compared to all previous gout flares in any joints. In addition, the subjects were asked an exploratory question in nature: the subject was asked during their current gout attack to indicate the degree of which the subject's physical mobility had been limited (on a scale of 0-10). The investigator reviewed the information provided and assessed whether or not they believed the subject experienced a gout flare and/or documented an alternative etiology.
Summary statistics for the number and percentage of subjects experiencing a gout flare were summarized by treatment group within the following intervals: Day 1 to Month 2 (Day 1 to 60), Month 2 to 4 (Day 61 to 120), Month 4 to 6 (Day 121 to 180), Month 6 to 8 (Day 181 to 240), Month 8 to 10 (Day 241 to 300), Month 10 to 12 (>day 301, and overall Day 1 to Month 6, and Month 6 to Month 12. All gout flares with onset after Day 301 (including those reported <30 days since last dose) were included in the Month 10 to 12 interval.

For `Cc1nc(-c2ccc(OCC(C)C)c(C#N)c2)sc1C(=O)O` [Febuxostat, 2-[3-cyano-4-(2-methylpropoxy)phenyl]-4-methylthiazole-5-carboxylic acid], the “Percentage of Subjects with sUA < 6.0 mg/dL” value ([1]; 30 mg BID, Day 14) was 71.9 (23/32) %, the “Percentage of Subjects with sUA < 6.0 mg/dL” value ([1]; 30 mg BID, Month 1) was 71.9 (23/32) % and the “Percentage of Subjects with sUA < 6.0 mg/dL” value ([1]; 30 mg BID, Month 3) was 78.1 (25/32) %. The “Percentage of Subjects with sUA < 6.0 mg/dL” value ([1]; 30 mg BID, Month 6) was 65.6 (21/32)* %, the “Serum urate change from Baseline, LS mean (SE)” value ([1]; 30 mg BID, Month 6) was −5.08 (0.304) mg/dL and the “Serum urate change from Baseline, LS mean difference (SE) from placebo group” value ([1]; 30 mg BID, Month 6) was −5.15 (0.428) mg/dL. For the same molecule, the “Percentage of Subjects with sUA < 6.0 mg/dL” value ([1]; 30 mg BID, Month 9) was 68.8 (22/32) %, the “Percentage of Subjects with sUA < 6.0 mg/dL” value ([1]; 30 mg BID, Month 12) was 68.8 (22/32)* % and the “Serum urate change from Baseline, LS mean (SE)” value ([1]; 30 mg BID, Month 12) was −4.97 (0.318) mg/dL. The “Serum urate change from Baseline, LS mean difference (SE) from placebo group” value ([1]; 30 mg BID, Month 12) was −4.82 (0.447) mg/dL, the “Serum urate change from Baseline, LS mean (SE)” value ([1]; 30 mg BID, Month 12, listed as febuxostat) was -4.97 mg/dL and the “Percentage of Subjects with sUA < 6.0 mg/dL” value ([1]; 40/80 mg QD, Day 14) was 33.3 (10/30) %. For the same molecule, the “Percentage of Subjects with sUA < 6.0 mg/dL” value ([1]; 40/80 mg QD, Month 1) was 35.5 (11/31) %, the “Percentage of Subjects with sUA < 6.0 mg/dL” value ([1]; 40/80 mg QD, Month 3) was 58.1 (18/31) % and the “Percentage of Subjects with sUA < 6.0 mg/dL” value ([1]; 40/80 mg QD, Month 6) was 51.6 (16/31)* %. For the same molecule, the “Serum urate change from Baseline, LS mean (SE)” value ([1]; 40/80 mg QD, Month 6) was −4.29 (0.309) mg/dL, the “Serum urate change from Baseline, LS mean difference (SE) from placebo group” value ([1]; 40/80 mg QD, Month 6) was −4.36 (0.431) mg/dL and the “Percentage of Subjects with sUA < 6.0 mg/dL” value ([1]; 40/80 mg QD, Month 9) was 58.1 (18/31) %. The “Percentage of Subjects with sUA < 6.0 mg/dL” value ([1]; 40/80 mg QD, Month 12) was 45.2 (14/31)* %, the “Serum urate change from Baseline, LS mean (SE)” value ([1]; 40/80 mg QD, Month 12) was −4.17 (0.323) mg/dL and the “Serum urate change from Baseline, LS mean difference (SE) from placebo group” value ([1]; 40/80 mg QD, Month 12) was −4.02 (0.451) mg/dL. The “Serum urate change from Baseline, LS mean (SE)” value ([1]; 40/80 mg QD, Month 12, listed as febuxostat) was -4.17 mg/dL, the “Percentage of Subjects With Gout Flares” value ([2]; 30 mg BID, 2 to ≤4 months) was “(10.7) %” and the “Percentage of Subjects With Gout Flares” value ([2]; 30 mg BID, 4 to ≤6 months) was “(14.3) %”. For the same molecule, the “Percentage of Subjects With Gout Flares” value ([2]; 30 mg BID, 4 to ≤6 months, listed as febuxostat) was 14.3%, the “Percentage of Subjects With Gout Flares” value ([2]; 30 mg BID, 6 to ≤8 months (after prophylaxis ended)) was “(26.3) %” and the “Percentage of Subjects With Gout Flares” value ([2]; 30 mg BID, 6 to ≤8 months (after prophylaxis ended), listed as febuxostat) was 26.3%. For the same molecule, the “Percentage of Subjects With Gout Flares” value ([2]; 30 mg BID, 8 to ≤10 months) was “(5.9) %”, the “Percentage of Subjects With Gout Flares” value ([2]; 30 mg BID, 10 to ≤12 months) was “(11.8) %” and the “Percentage of Subjects With Gout Flares” value ([2]; 30 mg BID, Day 1 to Month 6) was “(28.1)* %”. The “Percentage of Subjects With Gout Flares” value ([2]; 30 mg BID, Day 1 to Month 6, listed as febuxostat) was 28.1%, the “Percentage of Subjects With Gout Flares” value ([2]; 30 mg BID, Month 6 to Month 12) was “(31.6)* %” and the “Percentage of Subjects With Gout Flares” value ([2]; 30 mg BID, Month 6 to Month 12, listed as febuxostat) was 31.6%. The “Percentage of Subjects With Gout Flares” value ([2]; 30 mg BID, ≤2 months) was “(18.8)* %”, the “Increase of percentage of subjects with at least one gout flare, months 6 to ≤8 relative to months 4 through 6” value ([2]; 30 mg IR BID) was 84% and the “Increase of percentage of subjects with at least one gout flare, months 6 to ≤8 relative to months 4 through 6” value ([2]; 40/80 mg IR QD) was 279%. For the same molecule, the “Percentage of Subjects With Gout Flares” value ([2]; 40/80 mg QD, 2 to ≤4 months) was “(27.6) %”, the “Percentage of Subjects With Gout Flares” value ([2]; 40/80 mg QD, 4 to ≤6 months) was “(17.9) %” and the “Percentage of Subjects With Gout Flares” value ([2]; 40/80 mg QD, 4 to ≤6 months, listed as febuxostat) was 17.9%. The “Percentage of Subjects With Gout Flares” value ([2]; 40/80 mg QD, 6 to ≤8 months (after prophylaxis ended)) was “(50.0) %”, the “Percentage of Subjects With Gout Flares” value ([2]; 40/80 mg QD, 6 to ≤8 months (after prophylaxis ended), listed as febuxostat) was 50.0% and the “Percentage of Subjects With Gout Flares” value ([2]; 40/80 mg QD, 8 to ≤10 months) was “(22.2) %”. The “Percentage of Subjects With Gout Flares” value ([2]; 40/80 mg QD, 10 to ≤12 months) was “(23.1) %”, the “Percentage of Subjects With Gout Flares” value ([2]; 40/80 mg QD, Day 1 to Month 6) was “(56.3) %” and the “Percentage of Subjects With Gout Flares” value ([2]; 40/80 mg QD, Day 1 to Month 6, listed as febuxostat) was 56.3%. The “Percentage of Subjects With Gout Flares” value ([2]; 40/80 mg QD, Month 6 to Month 12) was “(64.3) %”, the “Percentage of Subjects With Gout Flares” value ([2]; 40/80 mg QD, Month 6 to Month 12, listed as febuxostat) was 64.3% and the “Percentage of Subjects With Gout Flares” value ([2]; 40/80 mg QD, ≤2 months) was “(50.0) %”.
